The values that follow come from patent US20260374766A1, “METHODS FOR TREATING CANCER” (Antares Therapeutics, Inc., priority 2022, published 2026).

pIC50, pKd: −log10 of the molar value. Read-outs that look alike come from different tables or passages of the source. Where only a bound is given, the exact number is not on record here.

The target of assay [1] is T1, p53 Y220C mutant protein (amino acid residues 94-293) (Homo sapiens, UniProt P04637, Y220C).
T1 construct: p53 Y220C mutant protein (amino acid residues 94-293)
Put plainly: Surface Plasmon Resonance (SPR) assay, Kd_kinetic. The assay is classed as binding. To be noted: SPR, p53 Y220C, read-out: SPR P53 Y220C KD kinetic. In a few lines:
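Kinetic dissociation constants derived by 1:1 model fit of SPR data acquired at 16 or 20 °C, pH 7.5 Tris/NaCl running buffer with 1% DMSO.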

In assay [2] the target is T1, p53 Y220C mutant protein (amino acid residues 94-293). Briefly: Thermal Shift Assay (TSA), dTM. The format is binding. To be noted: for ΔTm at 10 µM: 10 uM compound; for ΔTm at 100 µM: 100 uM compound. In a few lines:
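Sypro Orange melt (30→50 °C, 0.03 °C/s) with TM taken from a Boltzmann two-state fit. Protein (residues 94-293) at 5 μM was pre-incubated 3 h at 20 °C with compound at 10 μM or 100 μM in pH 7.4 HEPES/NaCl buffer containing 0.01% Pluronic F-127 and 1% DMSO.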

For assay [3], the target named is p53 Y220C (Homo sapiens, UniProt P04637, Y220C). Put plainly: Luciferase Reporter Assay (Luc), p53 response element, NClH1299 cells with inducible p53 Y220C. To be noted: luciferase reporter, NClH1299 inducible p53 Y220C, 6 hour; for AC50: read-out: Luc P53 Y220C AC50. The assay is classed as cell-based. In a few lines:
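Cells were seeded at 5,000 per well and induced with 0.5 ug/mL doxycycline for 24 hours, then exposed to compound for 6 hours. One-Glo reagent was added, plates shaken 5 minutes at room temperature, and luminescence read immediately.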
In general terms: Reporter assays use an easily measured gene product as a stand-in for the process of interest.

Assay [4] deals with NUGC3 p53 Y220C. Put plainly: Cell Proliferation Assay (CellTiter-Glo, CTG), NUGC3 p53 Y220C. To be noted: Homo sapiens, NUGC-3, 120 h, 5 days, CellTiter-Glo. The format is cell-based. In a few lines: (§1)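 Tet-One inducible p53 Y220C or R273H constructs were stably introduced into NCI-H1299 by lentiviral transduction; NUGC3 was used as is. Cells (250-500 per well) were exposed to compound for 5 days, then CellTiter-Glo was added for 10 min at room temperature and IC50 was calculated from luminescence.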
(ATP-based viability assays read luminescence as a measure of living cells.)

For assay [5], the system named is H1299 p53 Y220C. Briefly: Cell Proliferation Assay (CellTiter-Glo, CTG), H1299 p53 Y220C (NClH1299-inducible p53 Y220C). The assay is classed as cell-based. To be noted: Homo sapiens, NCI-H1299, 120 h, 5 days, CellTiter-Glo. In a few lines:
as §1

The test system of assay [6] is H1299 p53 R273H. Briefly: Cell Proliferation Assay (CellTiter-Glo, CTG), H1299 p53 R273H (NClH1299-inducible p53 R273H). To be noted: Homo sapiens, NCI-H1299, 120 h, 5 days, CellTiter-Glo. The assay is classed as cell-based. In a few lines: as §1
Setting [7] is: p53 Y220C, read-out: TSA P53 Y220C dTM.
The mark [8] stands for this setting: NClH1299-inducible p53 Y220C cells.
The mark [9] stands for this setting: NClH1299-inducible p53 R273H cells.
The mark [10] stands for this setting: thermal shift, read-out: TSA P53 Y220C dTM (100 uM).
[11] abbreviates: 10 uM tool compound as positive control.
Where [12] appears, read: thermal shift, read-out: TSA P53 Y220C dTM (10 uM).

On to `CNC(=O)c1ccc(OC)c(NCC#Cc2nc3c(N[C@H]4C[C@@H]5CC[C@H]4N5)cccn3c2SC(F)(F)F)c1` [Example 245], for which the negative-log Kd (pKd) in assay [1] is above 8.00. For the same compound, in assay [2] (setting [7]), the ΔTm at 10 µM is 5 to 10 °C. Moreover, the ΔTm at 100 µM in assay [2] (setting [7]) was at least 10 °C. Further, the AC50 in assay [3] (AC50) fell in the range of 1500 to 3000 nM. Further, the Emax in assay [3] (Emax) was below 70%. For the same compound, the pIC50 in assay [4] (NUGC3 cells) was above 6.12; in assay [5] (setting [8]), 5.52 to 5.82; in assay [6] (setting [9]), 5.00 to 5.10.

In the case of `CNC(=O)c1ccc(NCC#Cc2nc3c(N[C@@H]4CCN(C)C[C@@H]4F)cccn3c2CC(F)(F)F)c(C2CC2)c1` [Example 57, 3-cyclopropyl-4-{[3-(8-{[(3S,4R)-3-fluoro-1-methylpiperidin-4-yl]amino}-3-(2,2,2-trifluoroethyl)imidazo[1,2-a]pyridin-2-yl)prop-2-yn-1-yl]amino}-N-methylbenzamide], the pKd in assay [1] (kinetic KD) is 7.00 to 8.00. For the same compound, the ΔTm at 100 µM in assay [2] (setting [10]) was at least 10 °C. The same compound came in with a maximum response (Emax) in assay [3] (setting [11]) of 70 to 80%. Besides, the AC50 in assay [3] is above 3000 nM. Besides, the pIC50 in assay [4] (NUGC3 p53 Y220C) is below 5.52; in assay [5] (H1299 p53 Y220C), below 5.52; in assay [6] (H1299 p53 R273H) it was at most 5.00.

Regarding `CNC(=O)c1ccc(NCC#Cc2nc3c(N[C@@H]4C[C@H]5CC[C@H](N5)[C@@H]4F)cccn3c2SC(F)(F)F)c(OC)c1` [Example 324, 4-{[3-(8-{[(1S,2S,3R,5R)-2-fluoro-8-azabicyclo[3.2.1]octan-3-yl]amino}-3-[(trifluoromethyl)sulfanyl]imidazo[1,2-a]pyridin-2-yl)prop-2-yn-1-yl]amino}-3-methoxy-N-methylbenzamide], the negative logarithm of the Kd (pKd) in assay [1] is above 8.00. In assay [2] (setting [7]), the ΔTm at 10 µM is at least 10 °C. Further, the ΔTm at 100 µM in assay [2] (setting [7]) is at least 10 °C. Further, in assay [3] (AC50), the AC50 is below 750 nM. In addition, in assay [3] (Emax), the Emax fell in the range of 80 to 90%. The negative-log IC50 (pIC50) was above 6.12 in assay [4] (NUGC3 cells), above 6.12 in assay [5] (setting [8]) and 5.10 to 5.30 in assay [6] (setting [9]).

Turning to `CNC(=O)c1cnc(OC)c(NCC#Cc2nn3c(N[C@@H]4CCN(C)C[C@@H]4F)cccc3c2SC(F)F)c1` [Example 268], the negative logarithm of the Kd (pKd) in assay [1] is above 8.00. Also, in assay [2] (setting [7]), the ΔTm at 10 µM is at least 10 °C. In addition, the ΔTm at 100 µM in assay [2] (setting [7]) was at least 10 °C. Further, the AC50 in assay [3] (AC50) is below 750 nM. Also, the Emax in assay [3] (Emax) was above 90%. Further, the negative-log IC50 (pIC50) in assay [4] (NUGC3 cells) was above 6.12; in assay [5] (setting [8]), above 6.12; in assay [6] (setting [9]), above 5.30.

Turning to `CNC(=O)c1ccc(OC)c(NCC#Cc2nc3c(N[C@@H]4CNC[C@@H]4F)cccn3c2SC(F)(F)F)n1` [Example 172], the negative-log Kd (pKd) in assay [1] (kinetic KD) is above 8.00. Moreover, the ΔTm at 10 µM in assay [2] (setting [12]) is at least 10 °C. The ΔTm at 100 µM in assay [2] (setting [10]) was at least 10 °C. Moreover, the Emax in assay [3] (setting [11]) was 70 to 80%. Also, in assay [3], the concentration at half-maximal activity (AC50) was below 750 nM. In addition, the pIC50 is above 6.12 in assay [4] (NUGC3 p53 Y220C), above 6.12 in assay [5] (H1299 p53 Y220C) and 5.10 to 5.30 in assay [6] (H1299 p53 R273H).

As to `CNC(=O)c1ccc(NCC#Cc2nn3c(N[C@@H]4CCN(C)C[C@@H]4F)cccc3c2SC(F)F)c(OC)c1` [Example 219, 4-[(3-{3-[(difluoromethyl)sulfanyl]-7-{[(3S,4R)-3-fluoro-1-methylpiperidin-4-yl]amino}pyrazolo[1,5-a]pyridin-2-yl}prop-2-yn-1-yl)amino]-3-methoxy-N-methylbenzamide], the negative logarithm of the Kd (pKd) in assay [1] (kinetic KD) is above 8.00. Further, in assay [2] (setting [12]), the ΔTm at 10 µM fell in the range of 5 to 10 °C. Further, the ΔTm at 100 µM in assay [2] (setting [10]) lay within 5 to 10 °C. In addition, the maximal response (Emax) in assay [3] (setting [11]) lay in the range of 80 to 90%. The half-maximal activity concentration (AC50) in assay [3] is below 750 nM. Further, the negative-log IC50 (pIC50) in assay [4] (NUGC3 p53 Y220C) was above 6.12; in assay [5] (H1299 p53 Y220C), above 6.12; in assay [6] (H1299 p53 R273H), 5.10 to 5.30.

In the case of `CNC(=O)c1cnc(OC)c(NCC#Cc2nc3c(N[C@@H]4CCN(C)C[C@@H]4F)cccn3c2CC(F)(F)F)c1` [Example 261], the pKd in assay [1] was above 8.00. Moreover, in assay [2] (setting [7]), the ΔTm at 10 µM is 5 to 10 °C. In addition, in assay [2] (setting [7]), the ΔTm at 100 µM was at least 10 °C. Further, the half-maximal activity concentration (AC50) in assay [3] (AC50) lay within 1500 to 3000 nM. For the same compound, the maximal effect (Emax) in assay [3] (Emax) was in the range of 70 to 80%. Further, the negative-log IC50 (pIC50) was above 6.12 in assay [4] (NUGC3 cells), 5.82 to 6.12 in assay [5] (setting [8]) and at most 5.00 in assay [6] (setting [9]).

Broadly, the pKd is the Kd on a negative log10 scale, so that one unit is a factor of ten. As a reminder, the AC50 is the concentration giving half of the maximal activity seen. The term Emax denotes the maximal effect, on the per cent scale that the assay sets. As usually defined, the pIC50 is the negative decadic logarithm of the IC50, by convention in mol/L. A low value points to a high IC50.
